The values that follow are results of earlier work, collected in patent US20190161439A1, “MARINE SESSILE ORGANISM-REPELLING COMPOSITION” (BASSERU CHEMICAL CO., LTD., priority 2015, published 2019).

This data set deals with Barnacle. The note with it: reported values.

On to `[C-]#[N+]C(C)(C)CCCCCCCCC=C` [AF-035], for which the “concentration corresponding to the 50% adhesion inhibition rate to Barnacle (EC50)” value is 0.03 µg/mL.

Take `CC(=O)O[C@H]1CC[C@](C)(C#N)CC1` [AF-034]: the “concentration corresponding to the 50% adhesion inhibition rate to Barnacle (EC50)” value was 0.0084 µg/mL.
